Assay results taken from paper PMC11249012 (Journal of Medicinal Chemistry, 2024).
pIC50: −log10 of the molar value.

How the values were obtained:
HDAC9 = HDAC9 (Homo sapiens, UniProt Q9UKV0); assay: Biochemical assay for HDAC inhibition, HDAC9; conditions: concentrations as high as 100 μM
[1] = tested on: macrophage infiltration into 4T1 tumors; assay: Immunofluorescence of macrophages in 4T1 tumors (F4/80, Arg1); format: in vivo, mouse
Experimental: Inhibition of PD-L1 and CD80/CD86 is directly achieved through the immune checkpoint blockade of their receptors using anti-CTLA-4 and anti-PD-1 antibodies.[69],[70]
Primary tumor tissues were fixed using 4% paraformaldehyde and subsequently dehydrated in sucrose solutions ranging from 10 to 30% for approximately 24 h each. The tissues were then embedded in base molds (Fisherbrand—#22363553) containing an optimal cutting temperature (OCT) compound (Fisher Healthcare—#4585). The tissue blocks were placed immediately on dry ice until the OCT compound solidified, and then they were stored at −80 °C. Prior to IF staining, sections of 5–10 μm were obtained using a Leica CM3050 S cryostat and SuperFrost Plus slides (Fisherbrand—#1255015). The tumor sections were then incubated with blocking buffer [phosphate-buffered saline containing 2% bovine serum albumin, 0.3% Triton X-100, 1% FBS, and 10% goat serum] for 1 h at RT. To detect macrophages in the TME, the sections were incubated with a pan-macrophage rat monoclonal antibody F4/80 (Abcam—#6640) diluted in blocking buffer overnight at 4 °C. Sixteen hours later, tissues were washed 3 times with 100 mM Tris–HCl and then incubated with a secondary goat antirat antibody (Invitrogen—#A11081) for 1 h at RT. […] Subsequently, 4′,6-diamidino-2-phenylindole (DAPI; Invitrogen—#D3571) was used to counterstain the nuclei for 5 min at RT. Finally, the slides were mounted using Fluoromount-G medium (Invitrogen—#00495802) and coverslips (Fisher Scientific—#12545E) and imaged with a Zeiss LSM 710 confocal microscope with ×20 objective. Quantification was carried out by QuPath software (version 0.3.2). F4/80+ macrophages and F4/80+ Arg1+ M2 macrophages were classified based on their fluorescence signal.

HDAC7 = molecular target: T1, HDAC7 (Homo sapiens, UniProt Q8WUI4); assay: Biochemical assay for HDAC inhibition, HDAC7; conditions: read-out: IC50 HDAC7; Table 1, purified enzyme; unit inferred
T1 sequence (Q8WUI4 1-952): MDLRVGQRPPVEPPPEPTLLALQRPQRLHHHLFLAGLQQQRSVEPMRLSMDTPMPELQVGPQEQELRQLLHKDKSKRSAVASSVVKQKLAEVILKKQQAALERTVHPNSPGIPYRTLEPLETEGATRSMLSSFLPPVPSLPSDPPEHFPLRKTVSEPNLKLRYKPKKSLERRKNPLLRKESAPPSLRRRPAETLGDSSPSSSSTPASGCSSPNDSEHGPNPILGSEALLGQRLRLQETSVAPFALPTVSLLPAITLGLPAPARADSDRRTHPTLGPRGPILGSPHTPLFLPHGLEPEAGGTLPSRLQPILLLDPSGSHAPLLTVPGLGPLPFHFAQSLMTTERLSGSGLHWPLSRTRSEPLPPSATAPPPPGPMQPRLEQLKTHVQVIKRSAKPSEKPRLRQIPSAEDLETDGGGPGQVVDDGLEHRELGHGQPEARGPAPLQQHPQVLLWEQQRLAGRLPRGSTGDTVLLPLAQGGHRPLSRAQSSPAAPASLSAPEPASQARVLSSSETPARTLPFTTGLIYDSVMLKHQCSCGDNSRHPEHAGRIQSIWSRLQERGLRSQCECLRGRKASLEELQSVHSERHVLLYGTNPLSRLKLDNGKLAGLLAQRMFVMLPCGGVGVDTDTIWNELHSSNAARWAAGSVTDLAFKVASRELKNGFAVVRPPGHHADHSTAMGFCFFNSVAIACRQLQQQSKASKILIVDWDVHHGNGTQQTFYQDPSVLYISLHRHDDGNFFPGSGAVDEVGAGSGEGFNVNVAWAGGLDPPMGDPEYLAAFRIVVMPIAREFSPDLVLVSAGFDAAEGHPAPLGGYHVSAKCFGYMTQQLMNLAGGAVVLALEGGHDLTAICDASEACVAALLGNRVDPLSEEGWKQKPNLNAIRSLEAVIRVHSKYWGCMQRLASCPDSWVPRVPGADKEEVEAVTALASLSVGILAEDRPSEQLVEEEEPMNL

VDR = molecular target: T2, VDR (Mus musculus, UniProt P48281); assay: Cyp24a1 induction in B16-F10 melanoma cells; format: cell-based; parameters: endogenous in cells; host or cells: mouse B16-F10 melanoma cells; conditions: Figure S2A
T2 sequence (P48281 1-422): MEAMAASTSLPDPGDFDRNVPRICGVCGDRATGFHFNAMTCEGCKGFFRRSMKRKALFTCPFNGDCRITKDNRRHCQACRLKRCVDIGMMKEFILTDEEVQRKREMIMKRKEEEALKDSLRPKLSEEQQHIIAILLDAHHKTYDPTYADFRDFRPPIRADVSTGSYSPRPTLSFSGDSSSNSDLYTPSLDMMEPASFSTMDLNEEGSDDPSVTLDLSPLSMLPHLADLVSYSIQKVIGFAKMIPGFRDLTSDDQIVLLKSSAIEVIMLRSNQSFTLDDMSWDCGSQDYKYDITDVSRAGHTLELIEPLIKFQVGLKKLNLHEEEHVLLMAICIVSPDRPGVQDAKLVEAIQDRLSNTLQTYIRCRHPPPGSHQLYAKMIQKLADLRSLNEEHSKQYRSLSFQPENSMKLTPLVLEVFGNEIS
Excerpt: B16-F10 cells are responsive to 1,25D analogues[45] and HDACi[46],[47] and are therefore widely used in preclinical studies of melanoma solid tumor growth and metastases.[48] Although curable when treated early, melanoma is fatal when invasive. The American Cancer Society projected 97,610 new invasive melanoma cases in the US in 2023 and 7990 deaths. Current treatment options include chemotherapy, surgery, immunotherapy, or single agents targeting mutated genes such as B-RAF or C-KIT.[49]
RNA extraction was performed with the FavorPrep tissue total RNA mini kit (FAVORGEN Biotech Corporation FATRK 001) as per manufacturer’s instructions. cDNA was obtained from 1 μg of RNA using 5× All-in-One RT MasterMix (Applied Biological Materials (abm) Inc. G485) and diluted 5 times. qPCR was performed with BrightGreen 2× q-PCR MasterMix (abm MasterMix-LR-XL) on a Roche LightCycler 96 system. Expression of targeted genes was normalized to 18 s.
Figure S2. A. Analysis of Cyp24a1 induction by ZG126, DK406, AM193 along with 1,25D and SAHA as controls in B16-F10 cells. B. Western blots analyzing the effects of 1,25D, SAHA and hybrids on hyperacetylation of tubulin, H3K9 and H3K27 in B16-F10 cells. C. Quantification of the analyses of hyperacetylation in B16-F10 cells of tubulin, H3K9 and H3K27. D. Assessment of cytotoxicity in B16-F10 […]
(1 picture or pasted object on this page, not shown here)

HDAC9, sequence (Q9UKV0 whole entry): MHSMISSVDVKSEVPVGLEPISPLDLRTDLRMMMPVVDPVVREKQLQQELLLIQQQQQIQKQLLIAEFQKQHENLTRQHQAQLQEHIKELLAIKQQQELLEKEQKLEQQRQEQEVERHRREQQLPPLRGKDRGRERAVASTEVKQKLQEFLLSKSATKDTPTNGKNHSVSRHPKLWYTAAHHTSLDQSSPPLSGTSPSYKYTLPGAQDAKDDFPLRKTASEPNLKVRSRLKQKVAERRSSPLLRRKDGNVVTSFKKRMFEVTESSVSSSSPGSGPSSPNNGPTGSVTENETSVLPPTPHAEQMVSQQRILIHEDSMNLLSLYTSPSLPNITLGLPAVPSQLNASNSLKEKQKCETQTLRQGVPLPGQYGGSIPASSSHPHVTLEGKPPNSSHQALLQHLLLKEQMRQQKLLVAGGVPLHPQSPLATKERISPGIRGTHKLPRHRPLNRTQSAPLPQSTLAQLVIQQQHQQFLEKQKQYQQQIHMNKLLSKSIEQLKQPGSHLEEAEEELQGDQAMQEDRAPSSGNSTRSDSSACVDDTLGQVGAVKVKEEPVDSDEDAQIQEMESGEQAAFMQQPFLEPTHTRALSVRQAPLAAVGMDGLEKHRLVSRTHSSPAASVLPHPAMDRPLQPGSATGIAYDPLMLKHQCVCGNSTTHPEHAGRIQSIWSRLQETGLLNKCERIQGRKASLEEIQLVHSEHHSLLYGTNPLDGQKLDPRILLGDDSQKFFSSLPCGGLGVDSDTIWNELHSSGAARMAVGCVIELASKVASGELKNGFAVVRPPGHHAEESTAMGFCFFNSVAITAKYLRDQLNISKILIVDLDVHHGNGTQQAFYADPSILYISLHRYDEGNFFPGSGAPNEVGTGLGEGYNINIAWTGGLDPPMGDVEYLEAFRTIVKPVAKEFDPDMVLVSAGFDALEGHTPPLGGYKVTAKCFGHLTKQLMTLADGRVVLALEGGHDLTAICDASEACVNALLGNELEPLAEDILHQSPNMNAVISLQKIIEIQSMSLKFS

SMILES: CCC(CC)(c1ccc(C(=O)NCCCCC(=O)NO)cc1)c1ccc(OCC(O)C(C)(C)C)c(C)n1 (stereo not shown) [ZG-126, 4-(3-(5-(2-Hydroxy-3,3-dimethylbutoxy)-6-methylpyridin-2-yl)pentan-3-yl)-N-(5-(hydroxyamino)-5-oxopentyl)benzamide]
- inhibition of HDAC9 (HDAC9): no or very limited inhibition
- reduction of the proportion of M2-polarized immunosuppressive macrophages ([1]; 4T1 tumors): 2 fold
- total macrophage infiltration into 4T1 tumors (F4/80 staining) ([1]; Figure 8B): significantly reduced
- percentage of anti-inflammatory M2 macrophages (Arg1 staining) ([1]; Figure 8C-E): most efficacious at reducing the percentage of anti-inflammatory M2 macrophages
- reduction of total macrophage infiltration ([1]; TNBC (4T1) tumors): 2 fold
- pIC50 (HDAC7): 4.26
- Cyp24a1 induction (VDR): mimicked
